According to patent US6355799B1, “Substituted benzene compounds, process for their preparation, and herbicidal and defoliant compositions containing them” (ISK Americas Incorporated, priority 1997, dated 2002):

What was measured:
Assay type in all cases: in vivo
[1] = system: upland rice (Oryza sp., var. Tebonnet, RICE); experiment: Post-emerge test, crop safety; settings: post-emerge, crop damage rating 0-100 at 14 days after application
Method in brief: (§1)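 Each test used a mechanized track sprayer delivering 187 l/ha of acetone solution at 15–1000 g ai/ha. Post-emerge foliage at 2–3 leaves was treated with added 0.25% v/v non-ionic surfactant and bottom-watered only. Injury was assessed on day 14, where 100 means total kill.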

[2] = system: field corn (Zea mays L., var. Dekalb 535, CORN); experiment: Post-emerge test, crop safety; settings: post-emerge, crop damage rating 0-100 at 14 days after application
Method in brief: as §1

[3] = system: upland rice (Oryza sp., var. Tebonnet, RICE); experiment: Pre-emerge test, crop safety; settings: crop damage, pre-emerge, phytotoxicity rating 0-100 at 14 days after application
Method in brief: (§2)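 Applied at 15–1000 g ai/ha from acetone in 187 l/ha spray volume. Post-emergence applications included 0.25% v/v non-ionic surfactant and reached plants sown 8–21 days before. Pre-emergence applications were incorporated by surface watering. Efficacy or crop damage was rated on a 0–100 scale after 14 days.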

[4] = system: field corn (Zea mays L., var. Dekalb 535, CORN); experiment: Pre-emerge test, crop safety; settings: crop damage, pre-emerge, phytotoxicity rating 0-100 at 14 days after application
Method in brief: as §2

[5] = system: large crabgrass (Digitaria sanguinalis, DIGSA); experiment: Post-emerge test, greenhouse herbicide activity screening; settings: post-emerge, phytotoxicity rating 0-100 at 14 days after application
Method in brief: (§3)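 Herbicidal damage is scored 0 (none) to 100 (complete plant death) two weeks after a simulated field spray. Rates span 15–1000 g ai/ha, delivered in acetone at 187 l/ha. For post-emergence treatments, plants have 2–3 leaves and the spray carries 0.25% v/v non-ionic surfactant.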

[6] = system: redroot pigweed (Amaranthus retroflexus, AMARE); experiment: as above; settings: post-emerge, phytotoxicity rating 0-100 at 14 days after application
Method in brief: as §3

[7] = system: velvetleaf (Abutilon theophrasti, ABUTH); experiment: as above; settings: post-emerge, phytotoxicity rating 0-100 at 14 days after application
Method in brief: as §3

[8] = system: barnyardgrass (Echinochloa crus-galli, ECHCG); experiment: as above; settings: post-emerge, phytotoxicity rating 0-100 at 14 days after application
Method in brief: as §3

[9] = system: sicklepod (Cassia obtusifolia, CASOB); experiment: as above; settings: post-emerge, phytotoxicity rating 0-100 at 14 days after application
Method in brief: as §3

[10] = system: ivyleaf morningglory (Ipomoea hederacea, IPOHE); experiment: as above; settings: post-emerge, phytotoxicity rating 0-100 at 14 days after application
Method in brief: as §3

[11] = system: johnsongrass (Sorghum halepense, SORHA); experiment: as above; settings: post-emerge, phytotoxicity rating 0-100 at 14 days after application
Method in brief: as §3

[12] = system: green foxtail (Setaria viridis, SETVI); experiment: as above; settings: post-emerge, phytotoxicity rating 0-100 at 14 days after application
Method in brief: as §3

[13] = system: lambsquarters (Chenopodium album, CHEAL); experiment: as above; settings: post-emerge, phytotoxicity rating 0-100 at 14 days after application
Method in brief: as §3

[14] = system: large crabgrass (Digitaria sanguinalis, DIGSA); experiment: Pre-emerge test, greenhouse herbicide activity screening; settings: pre-emerge, phytotoxicity rating 0-100 at 14 days after application
Method in brief: (§4)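 Plants grown in 10 cm pots of sandy loam mix received acetone-dissolved compounds through a moving flat-fan nozzle. Doses ranged from 15 to 1000 g ai/ha. Pre-emerge pots were seeded one day earlier, post-emerge pots 8–21 days earlier. Fourteen days on, each pot was graded 0–100 for damage.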

[15] = system: velvetleaf (Abutilon theophrasti, ABUTH); experiment: as above; settings: pre-emerge, phytotoxicity rating 0-100 at 14 days after application
Method in brief: as §4

[16] = system: barnyardgrass (Echinochloa crus-galli, ECHCG); experiment: as above; settings: pre-emerge, phytotoxicity rating 0-100 at 14 days after application
Method in brief: as §4

[17] = system: sicklepod (Cassia obtusifolia, CASOB); experiment: as above; settings: pre-emerge, phytotoxicity rating 0-100 at 14 days after application
Method in brief: as §4

[18] = system: ivyleaf morningglory (Ipomoea hederacea, IPOHE); experiment: as above; settings: pre-emerge, phytotoxicity rating 0-100 at 14 days after application
Method in brief: as §4

[19] = system: johnsongrass (Sorghum halepense, SORHA); experiment: as above; settings: pre-emerge, phytotoxicity rating 0-100 at 14 days after application
Method in brief: as §4

[20] = system: green foxtail (Setaria viridis, SETVI); experiment: as above; settings: pre-emerge, phytotoxicity rating 0-100 at 14 days after application
Method in brief: as §4

[21] = system: lambsquarters (Chenopodium album, CHEAL); experiment: as above; settings: pre-emerge, phytotoxicity rating 0-100 at 14 days after application
Method in brief: as §4

[22] = system: redroot pigweed (Amaranthus retroflexus, AMARE); experiment: as above; settings: pre-emerge, phytotoxicity rating 0-100 at 14 days after application
Method in brief: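 Rating: 0–100 visual injury, 14 DAA. Application: acetone, 187 l/ha, 15–1000 g ai/ha, flat-fan track sprayer with nozzle 40–45 cm above soil or canopy. Post-emerge runs used 0.25% v/v surfactant on 2–3 leaf plants.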

SMILES: CCC(=O)Nc1c(Cl)cc(Cl)c(-n2nc(C)n(C(F)F)c2=O)c1N [Compound 6-19]
- Post-emerge Herbicidal Activity RICE ([1]; 63 g ai/ha): 0
- Post-emerge Herbicidal Activity RICE ([1]; 250 g ai/ha): 0
- Post-emerge Herbicidal Activity CORN ([2]; 63 g ai/ha): 0
- Post-emerge Herbicidal Activity CORN ([2]; 250 g ai/ha): 0
- Pre-emerge Herbicidal Activity RICE ([3]; rate 63 g ai/ha): 0
- Pre-emerge Herbicidal Activity RICE ([3]; rate 250 g ai/ha): 0
- Pre-emerge Herbicidal Activity CORN ([4]; rate 63 g ai/ha): 0
- Pre-emerge Herbicidal Activity CORN ([4]; rate 250 g ai/ha): 0
- Post-emerge Herbicidal Activity DIGSA ([5]; 63 g ai/ha): 0
- Post-emerge Herbicidal Activity DIGSA ([5]; 250 g ai/ha): 0
- Post-emerge Herbicidal Activity AMARE ([6]; 63 g ai/ha): 0
- Post-emerge Herbicidal Activity AMARE ([6]; 250 g ai/ha): 30
- Post-emerge Herbicidal Activity ABUTH ([7]; 63 g ai/ha): 0
- Post-emerge Herbicidal Activity ABUTH ([7]; 250 g ai/ha): 50
- Post-emerge Herbicidal Activity ECHCG ([8]; 63 g ai/ha): 0
- Post-emerge Herbicidal Activity ECHCG ([8]; 250 g ai/ha): 0
- Post-emerge Herbicidal Activity CASOB ([9]; 63 g ai/ha): 0
- Post-emerge Herbicidal Activity CASOB ([9]; 250 g ai/ha): 0
- Post-emerge Herbicidal Activity IPOHE ([10]; 63 g ai/ha): 0
- Post-emerge Herbicidal Activity IPOHE ([10]; 250 g ai/ha): 30
- Post-emerge Herbicidal Activity SORHA ([11]; 63 g ai/ha): 0
- Post-emerge Herbicidal Activity SORHA ([11]; 250 g ai/ha): 0
- Post-emerge Herbicidal Activity SETVI ([12]; 63 g ai/ha): 0
- Post-emerge Herbicidal Activity SETVI ([12]; 250 g ai/ha): 0
- Post-emerge Herbicidal Activity CHEAL ([13]; 63 g ai/ha): 0
- Post-emerge Herbicidal Activity CHEAL ([13]; 250 g ai/ha): 60
- Pre-emerge Herbicidal Activity DIGSA ([14]; rate 63 g ai/ha): 0
- Pre-emerge Herbicidal Activity DIGSA ([14]; rate 250 g ai/ha): 0
- Pre-emerge Herbicidal Activity ABUTH ([15]; rate 63 g ai/ha): 20
- Pre-emerge Herbicidal Activity ABUTH ([15]; rate 250 g ai/ha): 50
- Pre-emerge Herbicidal Activity ECHCG ([16]; rate 63 g ai/ha): 0
- Pre-emerge Herbicidal Activity ECHCG ([16]; rate 250 g ai/ha): 0
- Pre-emerge Herbicidal Activity CASOB ([17]; rate 63 g ai/ha): 0
- Pre-emerge Herbicidal Activity CASOB ([17]; rate 250 g ai/ha): 0
- Pre-emerge Herbicidal Activity IPOHE ([18]; rate 63 g ai/ha): 0
- Pre-emerge Herbicidal Activity IPOHE ([18]; rate 250 g ai/ha): 0
- Pre-emerge Herbicidal Activity SORHA ([19]; rate 63 g ai/ha): 0
- Pre-emerge Herbicidal Activity SORHA ([19]; rate 250 g ai/ha): 0
- Pre-emerge Herbicidal Activity SETVI ([20]; rate 63 g ai/ha): 0
- Pre-emerge Herbicidal Activity SETVI ([20]; rate 250 g ai/ha): 10
- Pre-emerge Herbicidal Activity CHEAL ([21]; rate 63 g ai/ha): 70
- Pre-emerge Herbicidal Activity CHEAL ([21]; rate 250 g ai/ha): 90
- Pre-emerge Herbicidal Activity AMARE ([22]; rate 63 g ai/ha): 30
- Pre-emerge Herbicidal Activity AMARE ([22]; rate 250 g ai/ha): 70
